# Test results reported in patent EP0115820A2, “Cephalosporin derivatives and process for their preparation” (Kaken Pharmaceutical Co., Ltd., priority 1983, dated 1984).
# Key:
# Assay in all cases: Minimum inhibitory concentration (MIC)
# Type in all cases: cell-based
# [1] = system: Escherichia coli NIHJ JC-2; settings: NIHJJC2; Escherichia coli NIHJ JC-2; bacterial suspension 10^6 cells/ml; sodium salts tested; read-out: Minimum inhibitory concentration
# From the text: (§1) The cephalosporin derivatives of the present invention are novel substances, and the antimicrobial activities of their sodium salts are shown by the minimum inhibitory concentrations (MIC, µg/ml) in Table 1, as compared with a typical known cephalosporin compound.
# [2] = system: Klebsiella pneumoniae No. 42; settings: Klebsiella pneumoniae No. 42; bacterial suspension 10^6 cells/ml; sodium salts tested; read-out: Minimum inhibitory concentration
# From the text: as §1
# Proteus vulgaris GN-76 = settings: GN76; Proteus vulgaris GN-76; bacterial suspension 10^6 cells/ml; sodium salts tested; read-out: Minimum inhibitory concentration
# From the text: as §1
# [3] = system: Pseudomonas aeruginosa E-2; settings: E2; Pseudomonas aeruginosa E-2; bacterial suspension 10^6 cells/ml; sodium salts tested; read-out: Minimum inhibitory concentration
# From the text: as §1
# [4] = system: Pseudomonas aeruginosa K-13; settings: K13; Pseudomonas aeruginosa K-13; bacterial suspension 10^6 cells/ml; sodium salts tested; read-out: Minimum inhibitory concentration
# From the text: as §1
# [5] = system: Pseudomonas aeruginosa Y-1; settings: Y1; Pseudomonas aeruginosa Y-1; bacterial suspension 10^6 cells/ml; sodium salts tested; read-out: Minimum inhibitory concentration
# From the text: as §1
# [6] = system: Serratia marcescens No. 16-2; settings: NO.162; Serratia marcescens No. 16-2; bacterial suspension 10^6 cells/ml; sodium salts tested; read-out: Minimum inhibitory concentration
# From the text: as §1
# [7] = system: Staphylococcus aureus 209 P JC-1; settings: 209PJC1; Staphylococcus aureus 209 P JC-1; bacterial suspension 10^6 cells/ml; sodium salts tested; read-out: Minimum inhibitory concentration
# From the text: as §1
Structure (SMILES),MIC [1] [µg/mL],MIC [2] [µg/mL],MIC (Proteus vulgaris GN-76) [µg/mL],MIC [3] [µg/mL],MIC [4] [µg/mL],MIC [5] [µg/mL],MIC [6] [µg/mL],MIC [7] [µg/mL]
"CC(=O)OCC1=C(C(=O)O)N2C(=O)[C@@H](NC(=O)C(NC(=O)c3cc(OC(C)=O)c(OC(C)=O)c(OC(C)=O)c3)c3csc(N)n3)[C@H]2SC1 (mixture of isomers) [Example 18, 7β-[DL-2-(3,4,5-triacetoxybenzoylamino)-2-(2-aminothiazol-4-yl)acetamido]cephalosporic acid]",0.39,0.1,0.78,0.2,0.78,0.78,3.12,1.56
"CC(=O)OCC1=C(C(=O)O)N2C(=O)[C@@H](NC(=O)C(NC(=O)c3ccccc3OC(C)=O)c3csc(N)n3)[C@H]2SC1 (mixture of isomers) [Example 15, 7β-[DL-2-(2-acetoxybenzoylamino)-2-(2-aminothiazol-4-yl)acetamido]cephalosporic acid]",1.56,6.25,6.25,25,25,50,200,0.39
"CO[C@@]1(NC(=O)C(NC(=O)c2cc(OC(C)=O)c(OC(C)=O)c(OC(C)=O)c2)c2csc(N)n2)C(=O)N2C(C(=O)O)=C(COC(C)=O)CS[C@@H]21 (mixture of isomers) [Example 7, 7α-methoxy-7β-[DL-2-(3,4,5-triacetoxy-benzoylamino)-2-(2-aminothiazol-4-yl)acetamido]-cephalosporic acid]",12.5,1.56,12.5,0.78,1.56,0.78,50,6.25
"CC(=O)OCC1=C(C(=O)O)N2C(=O)[C@@H](NC(=O)C(NC(=O)c3cc(O)c(O)c(O)c3)c3csc(N)n3)[C@H]2SC1 (mixture of isomers) [Example 25, 7β-[DL-2-(3,4,5-trihydroxy-benzoylamino)-2-(2-aminothiazol-4-yl)acetamido]-cephalosporic acid]",0.2,0.1,1.56,0.2,0.39,0.1,> 100,0.2
"Cn1nnnc1SCC1=C(C(=O)O)N2C(=O)[C@@H](NC(=O)C(NC(=O)c3ccc(O)c(O)c3)c3csc(N)n3)[C@H]2SC1 (mixture of isomers) [Example 2, 7β-[DL-2-(3,4-dihydroxybenzoylamino)-2-(2-aminothiazol-4-yl)acetamido]-3-(1-methyl-1H-tetrazol-5-yl-thiomethyl)-3-cephem-4-carboxylic acid]",0.78,0.2,6.25,0.39,0.1,0.2,100,0.39
"CC(=O)OCC1=C(C(=O)O)N2C(=O)[C@@H](NC(=O)C(NC(=O)c3cccc(OC(C)=O)c3)c3csc(N)n3)[C@H]2SC1 (mixture of isomers) [Example 16, 7β-[DL-2-(3-acetoxybenzoylamino)-2-(2-aminothiazol-4-yl)acetamidolcephalosporic acid]",1.56,3.12,6.25,200,200,> 200,> 200,0.39
"CC(=O)OCC1=C(C(=O)O)N2C(=O)[C@@H](NC(=O)C(NC(=O)c3cccc(O)c3)c3csc(N)n3)[C@H]2SC1 (mixture of isomers) [Example 23, 73-[DL-2-(3-hydroxybenzoylamino)-2-(2-aminothiazol-4-yl)acetamidolcephalosporic acid]",6.25,12.5,25,> 200,> 200,> 200,> 200,0.39
"CC(=O)OCC1=C(C(=O)O)N2C(=O)[C@@H](NC(=O)C(NC(=O)c3ccc(O)c(O)c3)c3csc(N)n3)[C@H]2SC1 (mixture of isomers) [Example 20, 7β-[DL-2-(3,4-dihydroxybenzoylamino)-2-(2-aminothiazol-4-yl)acetamido]cephalosporic acid]",0.39,0.05,0.2,0.1,0.2,0.05,6.25,0.39
"CC(=O)OCC1=C(C(=O)O)N2C(=O)[C@@H](NC(=O)C(NC(=O)c3cccc(O)c3O)c3csc(N)n3)[C@H]2SC1 (mixture of isomers) [Example 21, 7β-[DL-2-(2,3-dihydroxybenzoylamino)-2-(2-aminothiazol-4-yl)acetamido]cephalosporic acid]",1.56,0.39,1.56,0.39,0.78,3.12,> 200,3.12
"CC(=O)Oc1ccc(C(=O)NC(C(=O)N[C@@H]2C(=O)N3C(C(=O)O)=C(CSc4nnnn4C)CS[C@H]23)c2csc(N)n2)cc1OC(C)=O (mixture of isomers) [Example 1, 7β-[DL-2-(3,4-diacetoxybenzoylamino)-2-(2-aminothiazol-4-yl)acetamido]-3-(1-methyl-1H-tetrazol-5-yl-thiomethyl)-3-cephem-4-carboxylic acid]",0.2,0.1,0.39,0.2,0.2,0.05,6.25,0.78
"CC(=O)OCC1=C(C(=O)O)N2C(=O)[C@@H](NC(=O)C(NC(=O)c3ccc(OC(C)=O)cc3)c3csc(N)n3)[C@H]2SC1 (mixture of isomers) [Example 17, 7β-[DL-2-(4-acetoxybenzoylamino)-2-(2-aminothiazol-4-yl)acetamido]cephalosporic acid]",0.78,3.12,6.25,100,100,200,> 200,0.2
"CO[C@@]1(NC(=O)C(NC(=O)c2ccc(OC(C)=O)c(OC(C)=O)c2)c2csc(N)n2)C(=O)N2C(C(=O)O)=C(CSc3nnnn3C)CS[C@@H]21 (mixture of isomers) [Example 10, 7α-methoxy-7β-[DL-2-(3,4-diacetoxy-benzoylamino)-2-(2-aminothiazol-4-yl)acetamidol-3-(1-methyl-lH-tetrazol-5-yl-thiomethyl)-3-cephem-4-carboxylic acid]",6.25,0.2,1.56,0.2,0.2,0.2,3.12,0.78
"CO[C@@]1(NC(=O)C(NC(=O)c2cccc(OC(C)=O)c2OC(C)=O)c2csc(N)n2)C(=O)N2C(C(=O)O)=C(COC(C)=O)CS[C@@H]21 (mixture of isomers) [Example 8, 7α-methoxy-7β-(DL-2-(2,3-diacetoxy-benzoylamino)-2-(2-aminothiazol-4-yl)acetamido]-cephalosporic acid]",25,0.78,3.12,1.56,6.25,3.12,3.12,6.25
"CC(=O)OCC1=C(C(=O)O)N2C(=O)[C@@H](NC(=O)C(NC(=O)c3cccc(OC(C)=O)c3OC(C)=O)c3csc(N)n3)[C@H]2SC1 (mixture of isomers) [Example 14, 7β-[DL-2-(2,3-diacetoxybenzoylamino)-2-(2-aminothiazol-4-yl)acetamido]cephalosporic acid]",1.56,0.39,0.78,0.39,0.39,0.2,12.5,3.12
"CO[C@@]1(NC(=O)C(NC(=O)c2ccc(O)c(O)c2)c2csc(N)n2)C(=O)N2C(C(=O)O)=C(CSc3nnnn3C)CS[C@@H]21 (mixture of isomers) [Example 12, 7α-methoxy-7β-[DL-2-(3,4-dihydroxy-benzoylamino)-2-(2-aminothiazol-4-yl)acetamido]-3-(l-methyl-lH-tetrazol-5-yl-thiomethyl)-3-cephem-4-carboxylic acid]",6.25,0.1,1.56,0.2,0.39,0.2,0.78,1.56
"CC(=O)Oc1cc(C(=O)NC(C(=O)N[C@@H]2C(=O)N3C(C(=O)O)=C(CSc4nnnn4C)CS[C@H]23)c2csc(N)n2)cc(OC(C)=O)c1OC(C)=O (mixture of isomers) [Example 3, 7β-[DL-2-(3,4,5-triacetoxybenzoylamino)-2-(2-aminothiazol-4-yl)acetamidol-3-(l-methyl-lH-tetrazol-5-yl-thiomethyl)-3-cephem-4-carboxylic acid]",0.78,< 0.05,0.39,0.2,0.2,0.1,0.05,0.78
